Test results from ChEMBL document CHEMBL1138749, “N-Phenyl-4-pyrazolo[1,5-b]pyridazin-3-ylpyrimidin-2-amines as potent and selective inhibitors of glycogen synthase kinase 3 with good cellular efficacy” (J Med Chem, 2004).
pEC50, pIC50: −log10 of the molar value.

Assays:
[1] = target: Glycogen synthase kinase-3 beta (Homo sapiens, UniProt P49841)
Description: Binding affinity for human glycogen synthase kinase 3 beta

[2] = target: Cyclin-dependent kinase 2 (Homo sapiens, UniProt P24941)
[3] = target: Glycogen synthase kinase-3 beta (Rattus norvegicus, UniProt P18266); experiment: Effective concentration to increase glycogen deposition in rat skeletal muscle L6 myoblast cells; format: functional, cell-based
Chain of Glycogen synthase kinase-3 beta (Rattus norvegicus, UniProt P18266) (P18266 whole entry): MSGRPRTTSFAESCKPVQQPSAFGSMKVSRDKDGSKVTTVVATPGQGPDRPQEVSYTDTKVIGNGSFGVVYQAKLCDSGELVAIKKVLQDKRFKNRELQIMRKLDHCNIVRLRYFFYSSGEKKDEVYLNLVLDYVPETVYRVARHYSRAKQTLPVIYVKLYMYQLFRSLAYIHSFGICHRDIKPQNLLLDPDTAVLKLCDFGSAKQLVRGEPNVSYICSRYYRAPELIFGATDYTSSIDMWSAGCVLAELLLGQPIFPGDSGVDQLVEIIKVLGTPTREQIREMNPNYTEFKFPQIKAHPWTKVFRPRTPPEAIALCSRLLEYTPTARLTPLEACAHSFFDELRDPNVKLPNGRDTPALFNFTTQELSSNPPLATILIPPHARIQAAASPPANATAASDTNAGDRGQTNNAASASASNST

Chain of Glycogen synthase kinase-3 beta (Homo sapiens, UniProt P49841) (P49841 whole entry): as the sequence (P18266 whole entry) above, with M240V, P390T, A392T, T400A, A402T counted along it

| Structure (SMILES) | pIC50 [1] | pIC50 [2] | pEC50 [3] |
| --- | --- | --- | --- |
| COCCOc1cnn2ncc(-c3ccnc(Nc4cccc(OC)c4)n3)c2c1 | 7.10 | < 4.70 |  |
| Cc1ccc2c(-c3ccnc(Nc4ccc(F)c(F)c4)n3)c(-c3ccc(F)cc3)nn2n1 | 8.00 | < 4.70 |  |
| Cc1ccc2c(-c3ccnc(Nc4cccc(C(F)(F)F)c4)n3)c(-c3ccc(F)cc3)nn2n1 | 7.70 | < 4.70 | 5.17 |
| Cc1ccc2c(-c3ccnc(Nc4ccc5c(c4)OCCO5)n3)c(-c3ccc(F)cc3)nn2n1 | 8.00 | < 4.70 |  |
| Fc1cc(F)cc(Nc2nccc(-c3cnn4ncccc34)n2)c1 |  | 9.00 | 6.00 |
| Fc1ccc(Nc2nccc(-c3c(-c4cccc(C(F)(F)F)c4)nn4ncccc34)n2)cc1F | 6.51 | < 4.70 |  |
| Cc1ccc2c(-c3ccnc(Nc4ccc(Cl)c(C(F)(F)F)c4)n3)c(-c3cccc(C(F)(F)F)c3)nn2n1 |  | < 4.70 |  |
| Fc1ccc(Nc2nccc(-c3c(C4CCCCC4)nn4ncccc34)n2)cc1F | < 4.70 | < 4.70 |  |
| CCC(C)c1ccc(Nc2nccc(-c3cnn4ncccc34)n2)cc1 (stereo unspecified) | 6.92 | 6.82 |  |
| FC(F)(F)c1cccc(-c2nn3ncccc3c2-c2ccnc(Nc3ccccc3)n2)c1 | 6.82 | < 4.70 |  |
| Cc1ccc2c(-c3ccnc(Nc4ccc(Cl)c(C(F)(F)F)c4)n3)c(-c3ccccc3)nn2n1 | 7.00 | < 4.70 |  |
| Cc1cc(C)cc(Nc2nccc(-c3cnn4ncccc34)n2)c1 |  |  | 5.74 |
| COc1ccc(-c2nn3ncccc3c2-c2ccnc(Nc3ccccc3)n2)cc1 |  | < 4.70 |  |
| Fc1ccc(-c2nn3ncccc3c2-c2ccnc(Nc3ccc(F)c(F)c3)n2)cc1 |  | < 4.70 |  |
| Cc1ccc2c(-c3ccnc(Nc4ccc(F)c(F)c4)n3)c(-c3cccc(C(F)(F)F)c3)nn2n1 |  | < 4.70 |  |
| COc1ccc2c(-c3ccnc(Nc4ccc([N+](=O)[O-])cc4)n3)cnn2n1 | 7.15 | 7.70 |  |
| Fc1ccc(-c2nn3ncccc3c2-c2ccnc(Nc3ccccc3)n2)cc1 | 7.70 | < 4.70 |  |
| Fc1cc(F)cc(Nc2nccc(-c3c(-c4ccccc4)nn4ncccc34)n2)c1 | 8.00 | < 4.70 |  |
| c1ccc(-c2ccc3c(-c4ccnc(Nc5ccc6c(c5)OCCO6)n4)cnn3n2)cc1 | 6.92 | < 4.70 |  |
| COc1cc(Nc2nccc(-c3cnn4nc(C)ccc34)n2)cc(C(F)(F)F)c1 | 8.00 | 7.70 |  |
| c1cnn2ncc(-c3ccnc(Nc4ccc5c(c4)OCCCO5)n3)c2c1 |  | 8.22 |  |

| Structure (SMILES) | pIC50 [1] | pIC50 [2] | pEC50 [3] |
| --- | --- | --- | --- |
| Clc1ccc(-c2nn3ncccc3c2-c2ccnc(Nc3ccc4c(c3)OCCO4)n2)cc1 | 6.10 | < 4.70 |  |
| Clc1ccc(Nc2nccc(-c3cnn4ncccc34)n2)cc1Cl | 8.00 | 9.00 |  |
| Cc1ccc2c(-c3ccnc(Nc4cccc(C(F)(F)F)c4)n3)cnn2n1 | > 8.00 | 7.30 |  |
| FC(F)(F)c1cccc(-c2nn3ncccc3c2-c2ccnc(Nc3ccc(Cl)c(C(F)(F)F)c3)n2)c1 | 6.00 | < 4.70 |  |
| COc1cc(Nc2nccc(-c3cnn4nc(OC)ccc34)n2)cc(C(F)(F)F)c1 | 6.72 | 6.10 |  |
| Cc1ccc2c(-c3ccnc(Nc4ccccc4)n3)c(-c3ccc(C(F)(F)F)cc3)nn2n1 | < 4.50 | < 4.70 |  |
| CCCOc1ccc2c(-c3ccnc(Nc4cccc(C(F)(F)F)c4)n3)cnn2n1 | 6.10 | 5.90 |  |
| Oc1ccc2c(-c3ccnc(Nc4cccc(C(F)(F)F)c4)n3)cnn2n1 | 8.00 | 8.10 |  |
| COc1ccc2c(-c3ccnc(Nc4cc(C(F)(F)F)cc(C(F)(F)F)c4)n3)cnn2n1 |  | < 4.70 |  |
| Cc1ccc2c(-c3ccnc(Nc4ccc(C(F)(F)F)cc4)n3)cnn2n1 | 7.30 | 6.72 |  |
| COc1cccc(Nc2nccc(-c3cnn4nc(OC)ccc34)n2)c1 | 7.00 | 7.22 |  |
| COc1cc(Nc2nccc(-c3cnn4nc(OC)ccc34)n2)cc(OC)c1 | 6.92 | 6.72 |  |
| FC(F)(F)c1cc(Nc2nccc(-c3cnn4ncccc34)n2)ccc1Cl |  | 8.00 | 6.00 |
| COc1ccc2c(-c3ccnc(Nc4ccc5c(c4)OCCO5)n3)cnn2n1 | 7.52 | 7.00 |  |
| O=[N+]([O-])c1ccc(Nc2nccc(-c3cnn4ncccc34)n2)cc1 |  | 7.70 |  |
| FC(F)(F)c1ccc(-c2nn3ncccc3c2-c2ccnc(Nc3ccc(Cl)c(C(F)(F)F)c3)n2)cc1 | < 4.50 | < 4.70 |  |
| COc1ccc2c(-c3ccnc(Nc4cccc(C(F)(F)F)c4)n3)cnn2n1 | 7.30 | 6.80 |  |
| Fc1ccc(-c2nn3ncccc3c2-c2ccnc(Nc3ccc(Cl)c(C(F)(F)F)c3)n2)cc1 | 7.40 | < 4.70 |  |
| Fc1ccc(-c2nn3ncccc3c2-c2ccnc(Nc3cccc(C(F)(F)F)c3)n2)cc1 | 7.70 | < 4.70 | 5.55 |
| COc1ccc2c(-c3ccnc(Nc4ccc(C#N)cc4)n3)cnn2n1 | 7.30 | 6.30 |  |
| c1cnn2ncc(-c3ccnc(Nc4ccc5c(c4)OCO5)n3)c2c1 |  | 8.00 |  |

| Structure (SMILES) | pIC50 [1] | pIC50 [2] | pEC50 [3] |
| --- | --- | --- | --- |
| Cc1ccc2c(-c3ccnc(Nc4ccc5c(c4)OCCO5)n3)c(-c3cccc(C(F)(F)F)c3)nn2n1 | 6.82 | 5.30 |  |
| FC(F)(F)c1cc(Nc2nccc(-c3c(-c4ccc(Cl)cc4)nn4ncccc34)n2)ccc1Cl |  | < 4.70 |  |
| FC(F)(F)c1cccc(Nc2nccc(-c3c(-c4ccccc4)nn4ncccc34)n2)c1 | 8.00 | < 4.70 | 5.68 |
| c1ccc(Nc2nccc(-c3c(C4CCCCC4)nn4ncccc34)n2)cc1 | < 4.70 | < 4.70 |  |
| c1ccc(Nc2nccc(-c3cnn4ncccc34)n2)cc1 |  |  | 5.54 |
| N#Cc1ccc(Nc2nccc(-c3cnn4ncccc34)n2)cc1 |  | 9.00 |  |
| COc1cc(Nc2nccc(-c3cnn4ncccc34)n2)cc(C(F)(F)F)c1 |  | 8.00 | 5.92 |
| c1ccc(Nc2nccc(-c3c(-c4ccccc4)nn4ncccc34)n2)cc1 | 8.00 | 5.40 | 5.80 |
| Cc1ccc2c(-c3ccnc(Nc4ccc(Cl)c(C(F)(F)F)c4)n3)c(-c3ccc(F)cc3)nn2n1 | 7.30 | < 4.70 |  |
| Clc1cc(Cl)cc(Nc2nccc(-c3cnn4ncccc34)n2)c1 |  | 6.51 | 6.00 |
| Cc1ccc2c(-c3ccnc(Nc4ccc5c(c4)OCCO5)n3)c(-c3ccccc3)nn2n1 | 7.52 | < 4.70 |  |
| FC(F)(F)c1cccc(Nc2nccc(-c3c(-c4ccc(Cl)cc4)nn4ncccc34)n2)c1 |  | < 4.70 |  |
| c1ccc(Nc2nccc(-c3c(C4CC4)nn4ncccc34)n2)cc1 |  | 5.40 |  |
| c1ccc(-c2nn3ncccc3c2-c2ccnc(Nc3ccc4c(c3)OCCO4)n2)cc1 |  | < 4.70 |  |
| Cc1ccc2c(-c3ccnc(Nc4ccc(F)c(F)c4)n3)c(-c3ccccc3)nn2n1 | 7.52 | < 4.70 | 5.47 |
| Cc1ccc2c(-c3ccnc(Nc4ccccc4)n3)c(-c3cccc(C(F)(F)F)c3)nn2n1 | 6.10 | < 4.70 |  |
| Fc1ccc(Nc2nccc(-c3c(-c4ccc(Cl)cc4)nn4ncccc34)n2)cc1F | 6.00 | < 4.70 |  |
| FC(F)(F)c1cc(Br)cc(Nc2nccc(-c3cnn4ncccc34)n2)c1 |  | 8.00 |  |
| FC(F)(F)c1cc(Nc2nccc(-c3c(-c4ccccc4)nn4ncccc34)n2)ccc1Cl | 7.70 | < 4.70 |  |
| FC(F)(F)c1ccc(-c2nn3ncccc3c2-c2ccnc(Nc3cccc(C(F)(F)F)c3)n2)cc1 | < 4.50 | < 4.70 |  |
| Cc1ccc2c(-c3ccnc(Nc4ccccc4)n3)c(-c3ccccc3)nn2n1 | 7.30 |  | 5.44 |

| Structure (SMILES) | pIC50 [1] | pIC50 [2] | pEC50 [3] |
| --- | --- | --- | --- |
| Cc1ccc2c(-c3ccnc(Nc4ccc5c(c4)OCCO5)n3)cnn2n1 | 8.00 | 8.22 |  |
| Fc1ccc(Nc2nccc(-c3c(-c4ccccc4)nn4ncccc34)n2)cc1F | 8.00 | < 4.70 | 5.38 |
| CC(C)c1ccc(Nc2nccc(-c3cnn4ncccc34)n2)cc1 [GW805758X] | 7.52 | 8.00 |  |
| c1cnn2ncc(-c3ccnc(Nc4ccc5c(c4)OCCO5)n3)c2c1 [GW806290X] |  |  | 6.10 |
| CCOc1ccc2c(-c3ccnc(Nc4cc(OC)cc(C(F)(F)F)c4)n3)cnn2n1 [GW807982X] | 5.50 | < 4.70 |  |
| CCOc1ccc2c(-c3ccnc(Nc4cccc(C(F)(F)F)c4)n3)cnn2n1 [GW811761X] | 6.72 | 5.70 |  |
| FC(F)(F)c1cccc(Nc2nccc(-c3cnn4nc(-c5ccccc5)ccc34)n2)c1 [GW819077X] |  | 5.60 |  |
| Fc1ccc(-c2nn3ncccc3c2-c2ccnc(Nc3ccc4c(c3)OCCO4)n2)cc1 [GW827099X] | 8.00 | < 4.70 |  |
| COc1ccc(-c2nn3ncccc3c2-c2ccnc(Nc3cccc(C(F)(F)F)c3)n2)cc1 [GW827105X] |  | < 4.70 |  |
| COc1ccc(-c2nn3ncccc3c2-c2ccnc(Nc3ccc(F)c(F)c3)n2)cc1 [GW827396X] |  | < 4.70 |  |
| FC(F)(F)c1ccc(-c2nn3ncccc3c2-c2ccnc(Nc3ccc4c(c3)OCCO4)n2)cc1 [GW828525X] | < 4.50 | < 4.70 |  |
| Fc1ccc(Nc2nccc(-c3c(-c4ccc(C(F)(F)F)cc4)nn4ncccc34)n2)cc1F [GW828529X] | < 4.50 | < 4.70 |  |
| Clc1ccc(-c2nn3ncccc3c2-c2ccnc(Nc3ccccc3)n2)cc1 [GW829055X] |  | < 4.70 |  |
| COc1ccc(-c2nn3ncccc3c2-c2ccnc(Nc3ccc(Cl)c(C(F)(F)F)c3)n2)cc1 [GW829115X] |  | < 4.70 |  |
| Cc1ccc2c(-c3ccnc(Nc4ccc5c(c4)OCCO5)n3)c(-c3ccc(C(F)(F)F)cc3)nn2n1 [GW832467X] | < 4.50 | < 4.70 |  |
| Cc1ccc2c(-c3ccnc(Nc4ccccc4)n3)c(-c3ccc(F)cc3)nn2n1 [GW833373X] | 7.70 | < 4.70 |  |
| COc1cccc(Nc2nccc(-c3cnn4ncccc34)n2)c1 [PYRAZOLOPYRIDAZINE 1] |  |  | 5.89 |
| COc1ccc(Nc2nccc(-c3cnn4ncccc34)n2)cc1OC [PYRAZOLOPYRIDAZINE 2] | 8.00 | 7.30 | 5.82 |
